Experimental data from patent publication US9828592B2, “Chemically modified sophorolipids and uses thereof” (Sophoro Biotechnologies, LLC, priority 2011, dated 2017).

Key:
[1] = test system: Trichoderma reesei (Rut-C30); experiment: Cellulase induction studies in Trichoderma reesei culture, CMC endo-glucanase activity assay; type: cell-based; conditions: for Cellulase activity U/mL at day 3 / Cellulase activity U/mg at day 3: 2% glucose
[2] = test system: Trichoderma reesei (Rut-C30); experiment: as above; type: cell-based; conditions: for CMC (U/mL) at day 5: Example 4, inducer at 2% as carbon source, no glucose
Procedure: Trichoderma reesei (Rut-C30) was selected as the host for cellulase expression in this Example. To prepare for the cellulase induction studies, a citrate minimal media was first prepared. The media composition described by England et al. in U.S. 2010/0009408 was modified to include 14.4 g/L citric acid, 4 g/L KH2PO4, 6.35 g/L (NH4)2SO4, 2 g/L MgSO4-7H2O, 0.53 g/L CaCl2-2H2O, and trace metal elements at 1 mL/L, which included 5 g/L FeSO4-7H2O, 1.6 g/L MnSO4—H2O, and 1.4 g/L ZnSO4-7H2O. The final pH was adjusted to 5.50 using NaOH.
The Trichoderma reesei (ATCC56765) was used in this Example. This fungal strain was developed as a catabolic de-repressed strain from classic mutagenesis of parent strain NG14 and the wild type QM6A. See Seidl et al., BMC Genomics, 9:327 (2008). To propagate Trichoderma, the freeze-dried stock from ATCC was first dissolved in sterile deionized water, and then transferred onto a potato dextrose agar (PDA) plate (Teknova P0047) using a sterile loop. The PDA plate was maintained at room temperature under white fluorescent light. After approximately seven days, green Trichoderma spores were observed. In addition, 60% (w/v) glucose, 15% (w/v) lactose, and 15% (w/v) cellobiose stocks were prepared and used both as controls and as the carbon source for Trichoderma growth.
To initiate cellulase induction studies for each of the sophorolipid mixtures prepared in Examples 1-3 above, 0.5 mL of glucose stock was first placed into 14 mL of citrate minimal media inside a 125 mL baffled flask. […]
To commence the fermentation, an approximately 1 cm×1 cm square agar plug was removed from the Trichoderma spore-containing PDA agar plate using a sterile loop and placed into the cellulase induction culture media. […] At five days of fermentation, the samples were collected and analyzed for carboxymethylcellulose (CMC) endo-glucanase activity. […] It should be understood that one CMC unit denotes the activity that liberates 1 μmol of reducing sugars (expressed as glucose equivalents) in one minute under the specified conditions of 50° C. and pH 4.8.

Trichoderma viride = conditions: Mandels et al. 1962; cited from earlier work
[3] = Example 8, 1.0 g/L (15 mg/15 mL, 2.92 mM)
[4] = Example 9, 1.0 g/L (15 mg/15 mL, 2.92 mM)
[5] = Example 8, 0.13 g/L (2.0 mg/15 mL, 0.38 mM)
[6] = Example 8, 1.3 g/L (20 mg/15 mL, 3.90 mM)
[7] = Example 9, 0.13 g/L (2.0 mg/15 mL, 0.38 mM)
[8] = Example 9, 1.3 g/L (20 mg/15 mL, 3.90 mM)

SMILES | Cellulase activity U/mL at day 3 [1, 3] | Cellulase activity U/mg at day 3 [1, 3] | Cellulase activity U/mL at day 3 [1, 4] | Cellulase activity U/mg at day 3 [1, 4] | cellulase activity compared to the glucose control ([2]; Example 4, day 5, in words) | CMC (U/mL) at day 5 [2] | CMC (U/mL) at day 5 ([1]; Example 5, inducer at 2%, no glucose) | Cellulase activity U/mL at day 3 [1, 5] | Cellulase activity U/mg at day 3 [1, 5] | Cellulase activity U/mL at day 3 [1, 6] | Cellulase activity U/mg at day 3 [1, 6] | Cellulase activity U/mL at day 3 [1, 7] | Cellulase activity U/mg at day 3 [1, 7] | Cellulase activity U/mL at day 3 [1, 8] | Cellulase activity U/mg at day 3 [1, 8] | increase in cellulase production compared to cellobiose (Trichoderma viride)
O=C[C@H](O)[C@@H](O)[C@H](O[C@@H]1O[C@H](CO)[C@@H](O)[C@H](O)[C@H]1O)[C@H](O)CO [cellobiose] | 0.34 U/mL | 0.34 U/mg | 0.34 U/mL | 0.34 U/mg | marginal cellulase activity | 2.05 U/mL | – | – | – | – | – | – | – | – | – | –
OC[C@H]1O[C@@H](O[C@H]2[C@H](O)[C@@H](O)C(O)O[C@@H]2CO)[C@H](O)[C@@H](O)[C@H]1O (stereo partly drawn) [lactose] | 0.64 U/mL | 0.64 U/mg | 0.64 U/mL | 0.64 U/mg | – | 10.1 U/mL | 8.29 U/mL | – | – | – | – | – | – | – | – | –
OC[C@H]1O[C@@H](O[C@@H]2[C@@H](O)[C@H](O)[C@@H](CO)O[C@@H]2O)[C@H](O)[C@@H](O)[C@@H]1O [sophorose, 2-O-beta-D-glucopyranosyl-alpha-D-glucose] | – | – | – | – | – | – | – | 3.58 U/mL | 26.9 U/mg | 15.0 U/mL | 11.2 U/mg | 3.58 U/mL | 26.9 U/mg | 15.0 U/mL | 11.2 U/mg | about 2500 times
